Biological target: T1, CA (Human immunodeficiency virus type 1 group M subtype B, UniProt P12493)
T1 construct: a fusion protein of CA with glutathione-S-transferase (CA-GST)
Assay: ALPHA screen (AlphaScreen): inhibition of CAI binding to CA
Design: species or system HIV-1
Conditions: CAI-biotin peptide / CA-GST; compounds screened at 0.5-100 µM; read-out: α screen IC50
Description: The AlphaScreen experiments are performed using Perkin Elmer Enspire plate reader in white 96-well ProxiPlates and PBS supplemented with 0.05% Tween20, 2mM DTT, 2% DMSO. First, Streptavidin-coated Donor beads are used to capture the CAI-biotin peptide. In the other solution, a fusion protein of CA with glutathione-S-transferase (CA-GST) is mixed with GSH Acceptor beads. Both mixtures were incubated and then mixed together. To test the ability of prepared organic compounds to inhibit the CAI binding to CA, they are screened at concentrations between 0.5-100 µM and IC50 values are calculated from the influenced signals.
Upon illumination by laser at 680 nm, Donor beads containing the photosensitizer phthalocyanine convert ambient oxygen to an excited form of singlet oxygen ^1O2. Singlet oxygen can within its half-life of ~ 4 µs diffuse approximately 200 nm in solution. If an Acceptor bead is within that proximity, which is mostly upon CA:CAI interaction, energy is transferred from the singlet oxygen to thioxene derivates within the Acceptor and signal at 520 - 620 nm is emitted.

SMILES | IC50 [µM]
CN(C)c1ccc(-c2nc(Nc3cc([N+](=O)[O-])ccc3F)c3ccccc3n2)cc1 [AMR.511] | > 200
O=[N+]([O-])c1ccc(F)c(Nc2nc(-c3ccc(Cl)cc3Cl)nc3ccccc23)c1 [AMR.391] | > 200
Clc1ccc(-c2nc(NCCCn3ccnc3)c3ccccc3n2)cc1 [AMR.367] | > 200
Cn1nnc2cc(Nc3nc(-c4ccccn4)nc4ccccc34)ccc21 [AMR.421] | 33.7
Cc1ccnc(Nc2nc(-c3ccncc3)nc3ccccc23)c1 [AMR.355] | 25
CN(C)c1ccc(-c2nc(Nc3ccc4c(c3)nnn4C)c3ccccc3n2)cc1 [AMR.512] | 30.8
O=[N+]([O-])c1ccc(F)c(Nc2nc(-c3ccc(Cl)cc3)nc3ccccc23)c1 [AMR.366] | > 200
Fc1ccc(Nc2nc(-c3ccc(Cl)cc3)nc3ccccc23)cc1 [AMR.364] | > 200
c1cncc(-c2nc(Nc3ccc(-n4ccnc4)cc3)c3ccccc3n2)c1 [AMR.341] | 31.5
c1ccc2c(Nc3ccc(-n4ccnc4)cc3)nc(-c3ccncc3)nc2c1 [AMR.359] | 37.5
CN(C)c1cccc(-c2nc(Nc3cc([N+](=O)[O-])ccc3F)c3ccccc3n2)c1 [AMR.508] | > 200
Clc1ccc(-c2nc(Nc3cc(Cl)ccc3Cl)c3ccccc3n2)c(Cl)c1 [AMR.396] | > 200
CN(C)c1cccc(Nc2nc(-c3ccc(Cl)cc3)nc3ccccc23)c1 [AMR.380] | 157
Cc1ccc(Nc2nc(-c3cccnc3)nc3ccccc23)c(O)c1 [AMR.484] | 179
Cn1nc2ccc(Nc3nc(-c4ccncc4)nc4ccccc34)cc2n1 [AMR.464] | 97.4
COc1ccc(Nc2nc(-c3ccc(Cl)cc3)nc3ccccc23)cc1OC [AMR.363] | 54.8
c1ccc2c(Nc3ccc4[nH]nnc4c3)nc(-c3ccncc3)nc2c1 [AMR.358] | 5
O=[N+]([O-])c1ccc(F)c(Nc2ncnc3ccccc23)c1 [AMR.475] | > 200
COc1ccc(Nc2nc(-c3ccncc3)nc3ccccc23)cc1OC [AMR.350] | > 200
CN(C)c1ccc(Nc2nc(-c3ccc(Cl)cc3Cl)nc3ccccc23)cc1 [AMR.402] | 26.7
Clc1ccc(-c2nc(NCCCn3ccnc3)c3ccccc3n2)c(Cl)c1 [AMR.392] | > 200

SMILES | IC50 [µM]
Cc1ccc(S(=O)(=O)NNc2nc(-c3cccnc3)nc3ccccc23)cc1 [AMR.336] | 119
CN(C)c1ccc(Nc2nc(-c3cccnc3)nc3ccccc23)cc1 [AMR.378] | > 200
Cc1ccc(S(=O)(=O)NNc2nc(-c3ccncc3)nc3ccccc23)cc1 [AMR.356] | 156
c1ccc(-c2nc(Nc3ccc4[nH]nnc4c3)c3ccccc3n2)nc1 [AMR.422] | 3.2
Fc1cc(Nc2nc(-c3ccncc3)nc3ccccc23)c(F)cc1Br [AMR.455] | 15.3
Clc1ccc(Cl)c(Nc2nc(-c3ccncc3)nc3ccccc23)c1 [AMR.352] | 191
Cn1nnc2cc(Nc3nc(-c4ccncc4)nc4ccccc34)ccc21 [AMR.373] | 17.3
COc1ccc(Nc2nc(-c3ccc(Cl)cc3Cl)nc3ccccc23)cc1OC [AMR.395] | 121
Cc1ccc(S(=O)(=O)NNc2nc(-c3ccc(Cl)cc3)nc3ccccc23)cc1 [AMR.370] | > 200
CN(c1ccc2c(c1)nnn2C)c1nc(-c2ccncc2)nc2ccccc12 [AMR.471] | > 200
Cc1ccc(S(=O)(=O)NNc2nc(-c3ccccc3Cl)nc3ccccc23)cc1 [AMR.400] | > 200
Cc1ccc(Nc2nc(-c3ccncc3)nc3ccccc23)c(O)c1 [AMR.457] | > 200
O=[N+]([O-])c1ccc(F)c(Nc2nc(-c3ccncc3)nc3ccccc23)c1 [AMR.348] | 7.2
CCOC(=O)c1ccc(Nc2cc(-c3cccnc3)nc3ccccc23)cc1 [AMR.504] | 76
Clc1ccc(Cl)c(Nc2nc(-c3cccnc3)nc3ccccc23)c1 [AMR.345] | 22
O=[N+]([O-])c1ccc(F)c(Nc2nc(-c3cccnc3)nc3ccccc23)c1 [AMR.335] | 6.5
O=[N+]([O-])c1cc(Nc2nc(-c3ccncc3)nc3ccccc23)ccc1F [AMR.449] | 2.9
c1cncc(-c2nc(NCCCn3ccnc3)c3ccccc3n2)c1 [AMR.322] | > 200
O=[N+]([O-])c1ccc(O)c(Nc2nc(-c3ccncc3)nc3ccccc23)c1 [AMR.456] | 10.2
Fc1ccc(Cl)cc1Nc1nc(-c2ccncc2)nc2ccccc12 [AMR.451] | 15.1
Clc1ccc(-c2nc(Nc3ccc4[nH]nnc4c3)c3ccccc3n2)c(Cl)c1 [AMR.393] | 2

SMILES | IC50 [µM]
O=[N+]([O-])c1ccc(-c2nc(Nc3cc([N+](=O)[O-])ccc3F)c3ccccc3n2)cc1 [AMR.428] | 115
Fc1ccc(Cl)cc1Nc1nc(-c2cccnc2)nc2ccccc12 [AMR.427] | 16.5
Cn1nnc2cc(Nc3nc(-c4ccc(C(F)(F)F)cc4)nc4ccccc34)ccc21 [AMR.446] | 28.2
CNc1ccc([N+](=O)[O-])cc1Nc1nc(-c2ccncc2)nc2ccccc12 [AMR.466] | 4.7
CN(C)c1ccc(Nc2nc(-c3ccc(Cl)cc3)nc3ccccc23)cc1 [AMR.368] | 33.7
O=[N+]([O-])c1cccc(O)c1Nc1nc(-c2cccnc2)nc2ccccc12 [AMR.492] | 19.7
O=[N+]([O-])c1cc(F)ccc1Nc1nc(-c2cccnc2)nc2ccccc12 [AMR.426] | 14.5
O=[N+]([O-])c1cccc(O)c1Nc1nc(-c2ccncc2)nc2ccccc12 [AMR.461] | 57.4
Cc1cccc(Nc2nc(-c3ccncc3)nc3ccccc23)c1C [AMR.354] | 165
O=[N+]([O-])c1cc(Nc2nc(-c3ccncc3)nc3ccccc23)ccc1O [AMR.458] | 5.8
Cn1nnc2cc(Nc3nc(-c4ccc([N+](=O)[O-])cc4)nc4ccccc34)ccc21 [AMR.437] | 50.9
CN(C)c1ccc(Nc2nc(-c3ccncc3)nc3ccccc23)cc1 [AMR.351] | 15.4
CCOC(=O)c1ccc(Nc2nc(-c3ccc(Cl)cc3Cl)nc3ccccc23)cc1 [AMR.390] | > 200
CN(C)c1cccc(Nc2nc(-c3ccc(Cl)cc3Cl)nc3ccccc23)c1 [AMR.403] | 41.1
CCOC(=O)c1ccc(Nc2nc(-c3ccc(Cl)cc3)nc3ccccc23)cc1 [AMR.361] | > 200
Clc1ccc(-c2nc(Nc3ccc4[nH]nnc4c3)c3ccccc3n2)cc1 [AMR.3 71] | 5
O=C(O)c1ccc(Nc2nc(-c3cccnc3)nc3ccccc23)c(O)c1 [AMR.493] | 30
c1ccc2c(NCCCn3ccnc3)nc(-c3ccncc3)nc2c1 [AMR.347] | > 200
Cn1nnc2cc(Nc3nc(-c4cccnc4)nc4ccccc34)ccc21 [AMR.372] | 6.4
Cn1nnc2cc(Nc3cc(-c4cccnc4)nc4ccccc34)ccc21 [AMR.505] | 59.8
O=[N+]([O-])c1ccc(F)c(Nc2nc(-c3ccccn3)nc3ccccc23)c1 [AMR.416] | 2.3

SMILES | IC50 [µM]
CN(C)c1cccc(-c2nc(Nc3ccc4c(c3)nnn4C)c3ccccc3n2)c1 [AMR.509] | > 200
COc1ccc(Nc2nc(-c3cccnc3)nc3ccccc23)cc1OC [AMR.328] | 110
Clc1ccc(-c2nc(Nc3cc(Cl)ccc3Cl)c3ccccc3n2)cc1 [AMR.362] | > 200
Cn1nnc2cc(Nc3nc(-c4ccc(Cl)cc4)nc4ccccc34)ccc21 [AMR.374] | 6.6
Fc1ccc(Nc2nc(-c3cccnc3)nc3ccccc23)cc1 [AMR.331] | 44.4
Cc1cccc(Nc2nc(-c3cccnc3)nc3ccccc23)c1C [AMR.334] | 43.2
O=C(O)c1ccc(Nc2nc(-c3ccncc3)nc3ccccc23)c(O)c1 [AMR.462] | 15.2
c1ccc2c(Nc3ccc4[nH]nnc4c3)ncnc2c1 [AMR.476] | 137
O=[N+]([O-])c1ccc(O)c(Nc2nc(-c3cccnc3)nc3ccccc23)c1 [AMR.481] | 2.1
Fc1cc(Nc2nc(-c3cccnc3)nc3ccccc23)c(F)cc1Br [AMR.483] | 16.1
Cn1nnc2cc(Nc3nc(-c4ccc(Cl)cc4Cl)nc4ccccc34)ccc21 [AMR.401] | 41.8
FC(F)(F)c1ccc(-c2nc(Nc3ccc4[nH]nnc4c3)c3ccccc3n2)cc1 [AMR.445] | 53.2
CN(C)c1cccc(Nc2nc(-c3cccnc3)nc3ccccc23)c1 [AMR.379] | 217
O=[N+]([O-])c1ccc(F)c(Nc2nc(-c3ccc(C(F)(F)F)cc3)nc3ccccc23)c1 [AMR.444] | > 200
O=[N+]([O-])c1ccc(-c2nc(Nc3ccc4[nH]nnc4c3)c3ccccc3n2)cc1 [AMR.429] | 2.4
O=[N+]([O-])c1cc(F)ccc1Nc1nc(-c2ccncc2)nc2ccccc12 [AMR.450] | 169
CN(C)c1cccc(Nc2nc(-c3ccncc3)nc3ccccc23)c1 [AMR.381] | 130
Cc1cccc(Nc2nc(-c3ccc(Cl)cc3)nc3ccccc23)c1C [AMR.365] | > 200
Fc1ccc(Nc2nc(-c3ccc(Cl)cc3Cl)nc3ccccc23)cc1 [AMR.397] | > 200
Fc1ccc(Nc2nc(-c3ccncc3)nc3ccccc23)cc1 [AMR.353] | > 200
